Measured values from patent US8071556B2, “Peptide substance revealing a stress protective effect, pharmaceutical composition on its base, and the method of its application” (Obschestvo S Ogranichennoi Otvetstevennostyu “Sia Peptides”, priority 2006, dated 2011).
Positions of bridges follow the written chain, without caps; N, C: chain ends. Non-standard residues stand in square brackets, D forms with d. Residues, ends and D or L forms follow the SMILES beside them. *: point of attachment. Ileψ(thiazoline)Cys = CC[C@H](C)[C@H](N)C1=N[C@H](C(=O)*)CS1; dOrn = NCCC[C@@H](N)C(=O)O

Tests used:
[1] = test system: enkephalinases in human blood serum; assay: Activity of enkephalinases in human blood serum ([3H]Leu-enkephalin disintegration); type: biochemical; conditions: 0.15 μM [3H]Leu-enkephalin
Experimental: The ability of peptide H-Glu-Asp-Gly-OH to influence the activity of endogen opioid peptide degradation enzymes, i.e. […], was estimated in kinetic studies judging by disintegration of low concentrations (0.15 μM) of [^3H]Leu-enkephalin by human blood serum enzymes. Commonly used enkephalinase inhibitors N-carboxymethyl-Phe-Leu (N-CMPL) and bacitracin were used as comparison substances. Summary enkephalinase activity of the blood serum taken from 5 healthy donors, was estimated in vitro. Results were evaluated after 4 studies.

[2] = test system: biogen amines in rat brain cortex; assay: Level of biogen amines in rat brain cortex after peptide administration; type: in vivo; conditions: 2.5 μg/kg intraperitoneal daily for 5 days, vs control (FIG. 1)
Experimental: (§1) The study was performed on 27 white mongrel rats of both sexes with body weight of 300-320 g.
(§2) The animals were subjected to intraperitoneal injection of peptide H-Glu-Asp-Gly-OH in the dose of 2.5 μg/kg in 0.5 ml of sterile 0.9% NaCl solution daily for 5 days.
(§3) Control rats received sterile 0.9% NaCl solution in the same volume and by the same schedule.
(§4) Upon completion of peptide administration the animals were decapitated, and the content of noradrenaline, dopamine, 5-oxyindolacetic acid, serotonin and histamine was evaluated in the brain cortex and blood serum.

[3] = test system: biogen amines in rat blood serum; assay: Level of biogen amines in rat blood serum after peptide administration; type: in vivo; conditions: 2.5 μg/kg intraperitoneal daily for 5 days, vs control (FIG. 2)
Experimental: as §1, §2, §3, §4

[4] = test system: c-fos gene expression in the neurons of rat hypothalamic paraventricular nucleus; assay: c-fos gene expression in neurons of rat hypothalamic paraventricular nucleus under emotional stress; type: in vivo, Wistar rats
Experimental: The effect of peptide H-Glu-Asp-Gly-OH was studied in the paraventicular nucleus of hypothalamus (PVH) in stress-resistant and stress-prone animals, as well as in rats exposed to emotional stress.
The experiments were conducted on 28 Wistar rats.
Behavior of the animals was preliminarily (for the purpose of identifying the extent of their resistance to emotional stress) estimated in the “open field” test. The effectiveness of peptide H-Glu-Asp-Gly-OH was studied on stress-resistant and stress-prone rats. Peptide H-Glu-Asp-Gly-OH was administered intraperitoneally in the doses of 0.1 and 0.01 μg per rat 7-10 days after the first “open field” test. One hour after the injection the rats were exposed to the 60 minutes emotional stress, which was modulated by motional restriction.
To identify the cells, containing Fos protein, which is a product of the early c-fos gene expression, an immunohystochemical investigation of brain section with automated counting of Fos-positive cells was performed. The peculiarities of c-fos gene induction were studied in the PVH.

[5] = test system: c-Fos protein in rat pineal gland; assay: c-Fos protein level and parenchyma status in rat pineal gland in osmotic stress; type: in vivo; conditions: rats, 48-hour osmotic stress
Experimental: Effect of intranasally administered H-Glu-Asp-Gly-OH peptide on c-Fos protein content in stress-affected rat pineal gland was studied. Immunohistochemical study of c-Fos protein content was performed in two groups of rats—intact and subjected to 48-hour osmotic stress. The latter were intranasally administered with peptide H-Glu-Asp-Gly-OH in the dose of 0.5 μg per animal in 0.1 ml of sterile physiological 0.9% NaCl solution (last infusion was performed 2 hours before taking the material). Pineal gland parenchyma in all groups of animals was studied using light optical appliances.

[6] = Acute toxicity, single intramuscular administration; type: in vivo, white mongrel male mice; conditions: mice, 1-5 mg/kg, dose exceeding the therapeutic one by more than 5000 times
Source text: (§5) Common toxicity of peptide H-Glu-Asp-Gly-OH was studied according to the requirements stated in the “Manual for experimental (pre-clinical) study of new pharmacological substances” (2000): acute toxicity in case of single administration of the substance, as well as sub-acute and chronic toxicity in case of long-term administration of the peptide.
Acute toxicity was studied on 66 white mongrel male mice with body weight of 20-22 g. The animals were randomly subdivided into 6 equal groups. The substance was administered to the animals once, intramuscularly, in the doses of 1 mg/kg, 2 mg/kg, 3 mg/kg, 4 mg/kg, 5 mg/kg in 0.25 ml of sterile 0.9% NaCl solution. Control animals received 0.9% NaCl solution in the same volume.

[7] = Sub-acute toxicity, 90 days intramuscular administration; type: in vivo, white mongrel male rats; conditions: rats; intramuscular daily for 90 days; doses exceeding the therapeutic one by 100-1000 times
Source text: as §5
Sub-acute toxicity was studied on 64 white mongrel male rats with body weight of 180-220 g. Experimental animals daily, once a day, for 90 days received the substance intramuscularly in the doses of 1 μg/kg, 0.1 mg/kg, 1 mg/kg in 0.5 ml of sterile 0.9% NaCl solution. Control animals received sterile 0.9% NaCl solution in the same volume. Morphological composition and properties of the animals' peripheral blood was studied before the administration of the substance, as well as on the 30th, 60th and 90th day after the beginning of the administration of the substance. Biochemical and coagulologic indices of the blood were studied upon completion of the experiment.

[8] = set-up: species or system male guinea pigs; conditions: guinea pig, in vivo
Experimental: as §5
The studies of chronic toxicity were conducted for 6 months, basing on the term of recommended clinical administration of the substance, on 92 male guinea pigs with body weight of 310-350 g. Experimental animals received the peptide daily, once a day, intramuscularly, for 6 months in the doses of 1 μg/kg, 0.1 mg/kg, 1 mg/kg in 0.5 ml of sterile 0.9% NaCl solution. Control animals received sterile 0.9% NaCl solution in the same volume and by the same schedule. Traditional methods were used for the evaluation of the following indices of the animals' peripheral blood: the quantity of erythrocytes, hemoglobin, reticulocytes, thrombocytes, leukocytes, leukocyte formula, erythrocyte sedimentation rate (ESR), erythrocyte resistance. Alongside with that, the content of total protein in the serum was identified using Lowry's method, as well as potassium and sodium content using the method of plasma spectrophotometry. After the completion of the experiment pathomorphologic studies of animal brain and spinal cord, spinal cord ganglia, thyroid gland, parathyroid glands, adrenal glands, testis, pituitary gland, heart, lungs, aorta, liver, kidneys, urinary bladder, pancreas, stomach, small intestine, large intestine, thymus, spleen, lymph nodes and bone marrow were performed.

[9] = Human functional status under low oxygen partial pressure (pressure chamber rise to 5000 meters); type: in vivo; conditions: healthy men
Experimental: Effect of peptide H-Glu-Asp-Gly-OH on human functional status and working ability in extreme conditions under the effect of low oxygen partial pressure was studied by examining 80 healthy men aged 20-22 years. The participants of the study were subdivided into 3 groups: 20 men formed the control group, while main groups I and II consisted of 30 persons each. Background study, including the examination of respiratory, cardiovascular and central nervous systems was performed on the first day of the experiment.
After the completion of background study the members of main group I began receiving the pharmaceutical composition, containing peptide H-Glu-Asp-Gly-OH as its active base, by intranasal infusions, in the dose of 5.0 mg in 1 ml of physiological solution (subgroup I), in the dose of 100.0 μg (subgroup II) and in the dose of 1.0 μg in 1.0 ml of physiological solution (subgroup III) […], for 2 days. Thus, the members of main group I received the peptide H-Glu-Asp-Gly-OH intranasally in the dose of 10 mg (subgroup I), 200 μg (subgroup II) and 2 μg (subgroup III) per course.
Members of main group II began receiving the pharmaceutical composition, containing the peptide H-Glu-Asp-Gly-OH as its active base, after the completion of background study, intramuscularly, in the dose of 5.0 mg in 1 ml of physiological solution (subgroup I), in the dose of 100.0 μg (subgroup II) and in the dose of 1.0 μg in 1.0 ml of physiological solution (subgroup III) daily, once a day, for 2 days.
Members of the control group received placebo in the form water for injections.
On the 4th day of the experiment the members of all 3 groups were subjected to the effect of hypoxic hypoxia by “rising” them to the altitude of 5000 meters for 60 minutes of exposition without auxiliary oxygen supply, which was imitated using the pressure chamber SBK-80. Participants of the experiment were shortly examined before the beginning of the “rise”, during the experiment and after its completion. On the 5th day of the experiment all participants were subjected to a full scale final examination. During the study reactive anxiety in all participants was on the moderate level (31-45 points). […] After 2 days of administration of the pharmaceutical composition containing peptide H-Glu-Asp-Gly-OH in different doses as its active base reactive anxiety in participants of the experiment was reduced by 10-13% depending on the dosage and method of administration of the pharmaceutical composition as compared to the members of the control group.

[10] = 10 μg/ml, human blood serum of 5 healthy donors (FIG. 5)
[11] = end of the test, depending on the dosage and method of administration, placebo 10-11%

## CC(C)C[C@H](NC(=O)[C@H](Cc1ccccc1)NCC(=O)O)C(=O)O [N-CMPL, N-carboxymethyl-Phe-Leu]
[1]; [10]
  activity of blood serum enkephalinases: comparable

## CC[C@H](C)[C@H](N)C1=N[C@H](C(=O)N[C@@H](CC(C)C)C(=O)N[C@H](CCC(=O)O)C(=O)N[C@H](C(=O)N[C@H]2CCCCNC(=O)[C@H](CC(N)=O)NC(=O)[C@@H](CC(=O)O)NC(=O)[C@H](Cc3cnc[nH]3)NC(=O)[C@@H](Cc3ccccc3)NC(=O)[C@H]([C@@H](C)CC)NC(=O)[C@@H](CCCN)NC2=O)[C@@H](C)CC)CS1 [bacitracin] ({Ileψ(thiazoline)Cys}-L[dE]IK[dOrn]I[dF]H[dD]N; lactam 4-C)
[1]; 50 μg/ml, human blood serum of 5 healthy donors
  activity of blood serum enkephalinases: comparable

## N[C@@H](CCC(=O)O)C(=O)N[C@@H](CC(=O)O)C(=O)NCC(=O)O [peptide H-Glu-Asp-Gly-OH, glutamyl-aspartyl-glycine] (H-Glu-Asp-Gly-OH)
[2]
  dopamine content in brain cortex: reliable increase
  noradrenaline content in brain cortex: reliable increase
  serotonin content in brain cortex: reliable increase
[3]
  dopamine content in blood serum: decrease
  histamine content in blood serum: decrease
  serotonin content in blood serum: decrease
[4]; 0.01 μg per rat intraperitoneal, stress-resistant rats, both not exposed and exposed to stress
  number of Fos-positive neural cells in PVH: increase
[4]; 0.1 μg per rat intraperitoneal, against the background of stress, stress-resistant animals
  number of Fos-positive neurons in PVH: increased
[4]; 0.1 μg per rat intraperitoneal, both stress-resistant and stress-prone rats
  number of Fos-positive neural cells in PVH: reduced
[5]; 0.5 μg per animal intranasal (FIG. 3)
  content of c-Fos protein in pinealocytes: Mild but reliable increase
[5]; 0.5 μg per animal intranasal (FIG. 4)
  osmotic stress induced dilation of capillaries and pericapillary space in pineal gland parenchyma: partial reduction
[1]; [10]
  activity of blood serum enkephalinases: inhibited
[6]
  acute toxicity: toxic reactions: does not cause toxic reactions
[7]
  sub-acute toxicity: side effects: absence of side effects
[8]
  chronic toxicity: side effects: absence of side effects
  effect on ESR, erythrocyte resistance and biochemical indices of the blood serum: No reliable effect
  pathologic changes (general status, blood indices, internal organs, cardiovascular and respiratory systems, liver and kidney functions): did not reveal any pathologic changes
[9]; 5000 meters, 60 minutes, placebo 60%
  study participants showing good tolerability to hypoxia: 80-90%
[9]; after 2 days of administration, different doses, intranasal or intramuscular
  reduction of reactive anxiety as compared to the control group: 10-13%
[9]; after hypoxia impact
  lung ventilation in case of dosed physical load: reduced lung ventilation
[9]; depending on the dose and method of administration, placebo 30-40%
  increase in heart rate (HR) caused by hypoxia: 10-20%
[9]; [11]
  increase in maximum oxygen consumption: 15-20%
  increase in physical working capacity index (PWC 170): 15-20%
[9]; intramuscular administration, different doses
  subjective status under hypoxic hypoxia versus initial level: equal to the initial level
[9]; intranasal infusion
  decrease in the subjective status under hypoxic hypoxia: 4-5%
[9]; next day after the impact of hypoxia, independently of the method of administration
  reactive anxiety level versus initial level: equal to the initial one
[9]; next day after the impact of hypoxia, intramuscular administration
  subjective status better than the initial level: 15%
[9]; next day after the impact of hypoxia, intranasal infusion
  subjective status better than the initial level: 10%
